Assay results: US6770635B1, “Method for medicating the inflammatory controlling system and adverse inflammatory reactions and for making compounds for treating the pathology of adverse inflammatory reactions” (Pharos Pharmaceuticals, priority 1995, dated 2004)

What was measured:
[1] = stability of BD2K1 in water (deuterium oxide), 500 MHz NMR; assay type: physicochemical; conditions: for After One Week (share of ingredient in the solution by NMR) / Initially % (share of ingredient in the solution by NMR): BD2K1 in deuterium oxide, room temperature about 27° C.
Experimental: A sample of BD2K1 made according to Example 1. Five mcg of the sample was dissolved in one ml of deuterium oxide and the solution was stored in a tightly capped screw capped tube maintained at room temperature which is about 27° C. Deuterium was used as the water source because it facilitates the NMR determinations of chemical configuration. The solution sample was scanned by 500 MHz NMR initially and after one week.

[2] = stabilizing effect of glucose added to BD2K1-deuterium oxide mixtures, NMR; assay type: physicochemical; conditions: for percent of total composition in the stationary equilibrium: 95% BD2K1 sample in water without glucose, one week; for level at which di-β-glucosamine equilibrates: 20% or more glucose in the mixture, in water, first week
Experimental: This experiment measures the stabilizing effect of glucose when added to the BD2K1 -deuterium oxide mixtures at room temperature. Various amounts of α-D-glucose were added to the similar starting mixtures in Example 3 and the NMRs were recorded to determine the percent changes of the total composition as a function of time.

[3] = storage of BD2K1 in a desiccated container; assay type: physicochemical; conditions: room temperature
[4] = tested on: mice immunologically sensitive to a specific water soluble chemical; assay: Inflammatory Controlling System (ICS) assay; assay type: in vivo
Experimental: An example of BD2K1 being synthesized in another area than in the intestine is seen in a mouse study which was conducted involving the Inflammatory Controlling System (ICS). ICS assay is done in mice immunologically sensitive to a specific water soluble chemical. When these mice are challenged intravenously with a sublethal dose of the chemical, below the toxicity level for non-sensitive mice, they immediately respond with an adverse immune reaction. Result is an acute pancreatitis, shock and death. […] The assay involves glucose controls which are administrated intraperitoneally at three times. The first is early (i.e., 3 hours) before the antigen challenge. The second is one hour before the challenge and the third is at zero hour (i.e., when the challenge is done). […] However, for the case where glucose was injected at the zero hour and one hour before the challenge there was no effect.
A further study in mice was conducted to test the effect of glucose in mice by various routes of administration in the ICS assay test. The glucose was administrated by four different routes: intraperitoneal, intravenous, subcutaneous and oral.

[5] = tolerability statements for BD2K (topical, parenteral use); assay type: in vivo
[6] = general statements on stability at alkaline pH and in body fluids; assay type: physicochemical

After One Week (share of ingredient in the solution by NMR) [1] [%]	Initially % (share of ingredient in the solution by NMR) [1] [%]	SMILES	percent of total composition in the stationary equilibrium [2]	decomposition on storage [3]	protection against the acute pancreatitis ([4]; BD2K1 controls of the route study)	protection from death on challenge ([4]; sensitive mice, intravenous sublethal antigen challenge)	irritation ([5]; applied topically)	IgE levels in patient sera ([5]; patient sera)	toxicity ([5]; used parentally)	reduction of BD2K1 to the starting material glucose ([1]; by adding water) [%]	stability in body fluids ([6]; body fluids)	stability at high alkaline pH ([6]; high alkaline pH)	level at which di-β-glucosamine equilibrates [2] [%]	level at which di-β-glucosamine equilibrates ([2]; listed as di-β-glucosamine)	time the equilibrium level is kept ([2]; 20% or more glucose, sealed container)
18	0	OC[C@H]1O[C@@H](O)[C@H](O)[C@@H](O)[C@@H]1O [β-glucose]													
1	1	c1cnccn1 [pyrazine]	less than 1%												
10	0	OC[C@H]1O[C@H](O)[C@H](O)[C@@H](O)[C@@H]1O [α-glucose]													

SMILES	After One Week (share of ingredient in the solution by NMR) [1] [%]	Initially % (share of ingredient in the solution by NMR) [1] [%]	percent of total composition in the stationary equilibrium [2]	decomposition on storage [3]	protection against the acute pancreatitis ([4]; BD2K1 controls of the route study)	protection from death on challenge ([4]; sensitive mice, intravenous sublethal antigen challenge)	irritation ([5]; applied topically)	IgE levels in patient sera ([5]; patient sera)	toxicity ([5]; used parentally)	reduction of BD2K1 to the starting material glucose ([1]; by adding water) [%]	stability in body fluids ([6]; body fluids)	stability at high alkaline pH ([6]; high alkaline pH)	level at which di-β-glucosamine equilibrates [2] [%]	level at which di-β-glucosamine equilibrates ([2]; listed as di-β-glucosamine)	time the equilibrium level is kept ([2]; 20% or more glucose, sealed container)
OC[C@H]1O[C@@H](N[C@@H]2O[C@H](CO)[C@@H](O)[C@H](O)[C@H]2O)[C@H](O)[C@@H](O)[C@@H]1O [BD2K1, di-Beta-D-glucopyranosylamine]	62	92	62%	does not decompose	good protection	protects these sensitive mice from death	without any irritation	without elevating IgE levels	no indication of toxicity	33	not very stable	extremely stable	80	about 80%	at least five years
